Converted amounts (≈) assume the structure as drawn.
Experiments:
Assay in all cases: In vitro cell growth inhibition test, MTT assay
Format in all cases: cell-based
Conditions in all cases: MTT assay 4 days after compound addition
human colon cancer HT29 = system: human colon cancer HT29
Description: (§1) Test Example 2 In Vitro Cell Growth Inhibition Test Cells and MTT Assay
(§2) Human squamous lung cancer […], human squamous lung cancer Ma44, human lung adenocarcinoma A549, human colon cancer HT29 and human pancreas cancer PANC-1 were used.

[1] = system: human squamous lung cancer RERF-RC-AI
Description: as §1, §2

[2] = system: human squamous lung cancer Ma44
Description: as §1, §2

[3] = system: human lung adenocarcinoma A549
Description: as §1, §2

[4] = system: human pancreas cancer PANC-1
Description: as §1, §2

| SMILES | IC50, HT29 (human colon cancer HT29) | IC50, RERF-LC-AI [1] | IC50, Ma44 [2] | IC50, A549 [3] | IC50, PANC-1 [4] |
| --- | --- | --- | --- | --- | --- |
| CCNC(=Nc1ncncc1CSc1nnc(-c2cc[n+]([O-])cc2)o1)NCC [Compound D-42] | 0.071 µg/mL (≈ 0.177 µM) | 0.082 µg/mL (≈ 0.205 µM) | 0.38 µg/mL (≈ 0.949 µM) | 0.57 µg/mL (≈ 1.42 µM) | 0.17 µg/mL (≈ 0.425 µM) |
| CCNC(=Nc1ncncc1CSc1nnc(-c2ccc(NC)cc2)o1)NCC [Compound A-66] | 0.067 µg/mL (≈ 0.162 µM) | 0.05 µg/mL (≈ 0.121 µM) | 1.8 µg/mL (≈ 4.36 µM) | 0.036 µg/mL (≈ 0.0873 µM) | 0.17 µg/mL (≈ 0.412 µM) |
| Cc1ncc(CSc2nnc(-c3ccc([N+](=O)[O-])cc3)o2)c(N=C(NCC(C)C)NCC(C)C)n1 [Compound A-129] | 0.3 µg/mL (≈ 0.602 µM) | 0.17 µg/mL (≈ 0.341 µM) | 0.33 µg/mL (≈ 0.662 µM) | 0.43 µg/mL (≈ 0.862 µM) | 0.21 µg/mL (≈ 0.421 µM) |
| CCNC(=Nc1nc(C)ncc1CSc1nnc(-c2ccc(C(=O)c3ccccc3)cc2)o1)NCC [Compound A-84] | 0.38 µg/mL (≈ 0.758 µM) | 0.18 µg/mL (≈ 0.359 µM) | 0.41 µg/mL (≈ 0.817 µM) | 0.44 µg/mL (≈ 0.877 µM) | 0.3 µg/mL (≈ 0.598 µM) |
| CCNC(=Nc1ncncc1CSc1nnc(-c2ccc(N(C)C)cc2)o1)NCC [Compound A-67] | 0.083 µg/mL (≈ 0.195 µM) | 0.053 µg/mL (≈ 0.124 µM) | 6.1 µg/mL (≈ 14.3 µM) | 0.083 µg/mL (≈ 0.195 µM) | 0.34 µg/mL (≈ 0.797 µM) |
| CCNC(=Nc1nc(C)ncc1CSc1nnc(-c2c[nH]nc2N)o1)NCC [Compound D-7] | 0.18 µg/mL (≈ 0.447 µM) | 0.083 µg/mL (≈ 0.206 µM) | 5.2 µg/mL (≈ 12.9 µM) | 3.2 µg/mL (≈ 7.95 µM) | 2.4 µg/mL (≈ 5.96 µM) |
| CCNC(=Nc1nc(C)ncc1CSc1nnc(-c2ccccc2C)o1)NCC [Compound A-78] | 0.021 µg/mL (≈ 0.051 µM) | 0.017 µg/mL (≈ 0.0413 µM) | 0.052 µg/mL (≈ 0.126 µM) | 0.063 µg/mL (≈ 0.153 µM) | 0.037 µg/mL (≈ 0.0899 µM) |

Source: patent US6420367B1, “Pyrimidine derivatives exhibiting antitumor activity” (Shionogo & Co., Ltd., priority 1998, dated 2002)
